Data on 22 compounds can be found in patent US20240317748A1, “CARBONYL SUBSTITUTED DIAZASPIRO COMPOUNDS AND ITS USE” (BIONOVA PHARMACEUTICALS (SHANGHAI) LIMITED, priority 2021, published 2024).

One assay addresses T1, Menin-MLL1 (Homo sapiens, UniProt O00255).
T1 construct: Menin (2-610) isform2; purchased ChemPartner 2020111101
T1 sequence (O00255 2-610): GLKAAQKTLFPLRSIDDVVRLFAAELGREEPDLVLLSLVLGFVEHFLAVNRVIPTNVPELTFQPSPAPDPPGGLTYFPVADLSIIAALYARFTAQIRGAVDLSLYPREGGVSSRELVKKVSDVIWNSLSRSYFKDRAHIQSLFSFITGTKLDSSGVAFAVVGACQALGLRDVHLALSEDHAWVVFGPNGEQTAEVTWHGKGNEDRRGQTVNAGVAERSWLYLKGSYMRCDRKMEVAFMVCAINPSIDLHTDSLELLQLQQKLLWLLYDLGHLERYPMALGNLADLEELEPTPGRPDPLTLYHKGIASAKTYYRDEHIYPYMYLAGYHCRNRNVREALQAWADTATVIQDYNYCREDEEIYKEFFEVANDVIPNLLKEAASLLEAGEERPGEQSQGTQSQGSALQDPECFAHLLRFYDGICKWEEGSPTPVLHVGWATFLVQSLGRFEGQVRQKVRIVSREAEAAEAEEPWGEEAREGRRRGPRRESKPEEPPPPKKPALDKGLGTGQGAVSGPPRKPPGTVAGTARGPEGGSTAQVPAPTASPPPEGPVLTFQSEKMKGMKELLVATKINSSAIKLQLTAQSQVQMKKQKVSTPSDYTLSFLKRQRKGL
Description: Menin-MLL1 inhibition assay (fluorescence polarization, Menin protein + FAM-MLL peptide). It counts as binding. The conditions noted are these: Menin (2-610) isoform 2, FAM-labelled MLL peptide, mP readout; read-out: Biochemical assay Menin-MLL1 IC50. As for the experimental part: 1× assay bu9ffer (Tris 7.5 50 mM, NaCl 50 mM, DTT 1 mM, Tween-20 0.01%) was prepared and test compounds solution (10 mM in DMSO, Sigma, Cat. No. 34869) were transferred to assay plate (384-well plate, Perkin Elmer, Cat. No. 6007279) by Echo. The final fraction of DMSO is 1%. 20 nM of Menin protein (Menin (2-610) isform2, ChemPartner, Cat. No. 2020111101) in 1× assay buffer was added to prepare 2× enzyme solution. Then 10 nM of MLL-peptide (Ac-SRWRFPARPGTGRR-Ahx-Ahx-K(FAM)-NH2, GL Biochem (Shanghai)), Cat. No. 833831/202009220104) in 1× assay buffer was added to prepare 2× substrate solution. 10 μL of 2× enzyme solution was transferred to assay plate or 10 μL of 1× assay buffer for low control group. 10 μL of 2× substrate solution was added to each well to start reaction. mP data on Envision (Ex480/Em535(s), Em535(p)) was collected.
Compound potencies were determined by first calculating % inhibition at each compound concentration according to equation 1:
Inhibition %=(Max−Signal)/(Max−Min)*100 (Equation 1)
Y=Bottom+(Top-Bottom)/(1+(IC50/X)[…]), where Y is % inhibition and X is compound concentration (Equation 2)

In the next assay the test system is MOLM13 cells. The experiment in a line: Cell proliferation assay (CellTiter-Glo), MOLM13. It counts as cell-based, human. The conditions noted are these: Homo sapiens, MOLM-13, 288 h; MOLM13 (MLL-AF9), 12 days incubation; read-out: Cell antiproliferation assay MOLM13 IC50. On the procedure:
(§1) The antiproliferative activity of test compounds was assessed in human leukemia cell lines. The cell line MV4-11, MOLM13 and OCI-AML3, which expresses the MLL fusion protein MLL-AF4, MLL-AF9 and carry the NPM1c gene mutation, respectively, were tested. HL-60 was used as a control cell line containing two MLL wildtype alleles in order to exclude compounds that display general cytotoxic effect. MV4-11 cells were cultured in IMDM supplemented with 10% FBS, MOLM13 and OCI-AML3 cells were cultured in RPMI1640 supplemented with 20% FBS, and HL-60 cells were cultured in IMDM supplemented with 20% FBS. Corresponding cells (MV4-11, MOLM13, OCI-AML3 or HL-60 cell line) were seeded in 100 uL medium per well in 96-well plate (white wall with clear bottom, tissue culture treated, Corning, Cat. No. CLS3903; Lot.No. 30419025). Plates were placed in the CO2 incubator overnight. Compounds solution (2 mM starting, 4-fold serial dilution) were prepared and added to the wells containing 100 μL of the culture medium with HPD300 according to the plate map and centrifuge at 1000 rpm for 1 minutes (200-fold dilution totally). MV4-11, MOLM13, OCI-AML3 and HL-60 cells were incubated with the compounds for 4, 12, 5 and 4 days, respectively, under 5% CO2 at 37° C., respectively. 100 μL of CellTiter-Glo reagent (Promega, Cat. No. G7573, Lot. No. 0000416710) was added to the assay plate by Multidrop Combi instrument, contents were mixed for 10 minutes on an orbital shaker to induce cell lysis. After incubation at room temperature for 10 mins, clear bottom with white back seal was pasted and luminescence with Envision was read.

The next assay deals with HL-60 cells. The experiment in a line: Cell proliferation assay (CellTiter-Glo), HL-60 control line. Particulars: Homo sapiens, 96 h, 4 days incubation; for pIC50: HL-60 control line (MLL wildtype), read-out: Cell antiproliferation assay HL-60 IC50; for inhibition at 10 µM: HL-60 control line, read-out: HL-60 (Pct of inhibition at 10 μM). It counts as cell-based, human. As for the experimental part:
as §1

A further assay deals with OCI-AML3 cells. The experiment in a line: Cell proliferation assay (CellTiter-Glo), OCI-AML3. It counts as cell-based, human. Particulars: Homo sapiens, OCI-AML-3, 120 h; OCI-AML3 (NPM1c mutation), 5 days incubation; read-out: Cell antiproliferation assay OCI-AML3 IC50. As for the experimental part: as §1
The next assay relates to MV-4-11 cells. The experiment in a line: Cell proliferation assay (CellTiter-Glo), MV-4-11. The assay is classed as cell-based, human. The conditions noted are these: Homo sapiens, MV4-11, 96 h; MV-4-11 (MLL-AF4), 4 days incubation; read-out: Cell antiproliferation assay MV-4-11 IC50. As for the experimental part: as §1

Molecules are shown by their SMILES. pIC50: −log10 of the molar value.

`CC(C)N(C(=O)c1cc(F)ccc1Oc1nncnc1N1CC2(CCN(C(=O)[C@@H]3C[C@@H](F)CN3)CC2)C1)C(C)C` [Example 56]: the pIC50 is 8.43 at Menin-MLL1; 7.17 in the assay on MOLM13 cells; less than 5.00 in the assay with HL-60 cells; 6.88 in the assay with OCI-AML3 cells; 7.77 in the assay with MV-4-11 cells. In the assay on HL-60 cells, the inhibition at 10 µM is -12.2%.
On to `CCN(C(=O)c1cc(F)ccc1Oc1nncnc1N1CC2(CCN(C(=O)[C@H]3NCC[C@@H]3CF)CC2)C1)C(C)C` [Example 88], for which the pIC50 on Menin-MLL1 is 8.49; in the assay on MOLM13 cells, 7.16; in the assay on HL-60 cells, less than 5.00; in the assay on OCI-AML3 cells, 6.99; in the assay with MV-4-11 cells, 7.62. For the same compound, the inhibition at 10 µM in the assay on HL-60 cells was 11.4%.
In the case of `CCN(C(=O)c1cc(F)ccc1Oc1cncnc1N1CC2(CCN(C(=O)[C@H]3NCC[C@@H]3C)CC2)C1)C(C)C` [Example 41], the pIC50 at Menin-MLL1 is 8.44; with MOLM13 cells it was 7.63; in the assay with HL-60 cells, less than 5.00; in the assay on OCI-AML3 cells, 7.50; in the assay with MV-4-11 cells, 8.11. For the same compound, the inhibition at 10 µM with HL-60 cells is -22.2%.
`N#Cc1ccc(-c2cc(F)ccc2Oc2nncnc2N2CC3(CCN(C(=O)[C@H]4NC[C@@H]5C[C@@H]54)CC3)C2)c(C2CC2)c1` [Example 78]: the pIC50 at Menin-MLL1 was 8.54; with MOLM13 cells, 7.85; in the assay on HL-60 cells, less than 5.00; with OCI-AML3 cells it was 7.55; in the assay on MV-4-11 cells, 8.19. Also, the inhibition at 10 µM in the assay on HL-60 cells amounted to 40%.
`CCN(C(=O)c1cc(F)ccc1Oc1cncnc1N1CC2(CCN(C(=O)[C@H]3NC[C@@H]4C[C@@H]43)CC2)C1)C(C)C` [Example 34]: the values for the pIC50 at Menin-MLL1, in the assay with HL-60 cells and in the assay on MV-4-11 cells were 8.39, less than 5.00 and 7.74, respectively. In the assay on HL-60 cells, the inhibition at 10 µM was -12.2%.
With `N#Cc1ccc(-c2cc(F)ccc2Oc2nncnc2N2CC3(CCN(C(=O)[C@H]4NC[C@@H]5CCC[C@@H]54)CC3)C2)c(C2CC2)n1` [Example 90], the pIC50 on Menin-MLL1 is 8.55; with MOLM13 cells, 8.21; with MV-4-11 cells, 8.59.
On to `CCN(C(=O)c1cc(F)ccc1Oc1nncnc1N1CC2(CCN(C(=O)[C@H]3NCc4ccccc43)CC2)C1)C(C)C` [Example 85], for which the pIC50 at Menin-MLL1 was 8.26; in the assay with HL-60 cells, less than 5.00; in the assay on MV-4-11 cells it was 7.12. The inhibition at 10 µM with HL-60 cells is -2.8%.
With `N#Cc1ccc(-c2cc(F)ccc2Oc2nncnc2N2CC3(CCN(C(=O)[C@@H]4C[C@@H](F)CN4)CC3)C2)c(C2CC2)c1` [Example 67], the pIC50 on Menin-MLL1 was 8.55; with MOLM13 cells it was 7.21; in the assay on HL-60 cells it was less than 5.00; in the assay with MV-4-11 cells, 7.69. The inhibition at 10 µM in the assay with HL-60 cells amounted to 23.8%.
Take `CC(C)N(CCO)C(=O)c1cc(F)ccc1Oc1cncnc1N1CC2(CCN(C(=O)[C@@H]3C[C@@H](F)CN3)CC2)C1` [Example 49]: the figures for the pIC50 at Menin-MLL1, with HL-60 cells and in the assay with MV-4-11 cells were 8.44, less than 5.00 and 7.24, respectively. Besides, the inhibition at 10 µM with HL-60 cells was -8.4%.
The like results for `CCN(C(=O)c1cc(F)ccc1Oc1cncnc1N1CC2(CCN(C(=O)[C@@H]3C[C@@H](C)CN3)CC2)C1)C(C)C` [Example 47] were, in that order, 8.43, less than 5.00, 7.80 and -10.6%.
On to `CC(C)N(C(=O)c1cc(F)ccc1Oc1nncnc1N1CC2(CCN(C(=O)[C@H]3NCC[C@@H]3C)CC2)C1)C(C)C` [Example 64], for which the pIC50 on Menin-MLL1 was 8.72; in the assay with MOLM13 cells, 7.69; in the assay on HL-60 cells it was less than 5.00; in the assay with MV-4-11 cells it was 8.02. In addition, the inhibition at 10 µM with HL-60 cells turned out to be 11.2%.
In the case of `CC(C)n1ncc(Cl)c1-c1cc(F)ccc1Oc1cncnc1N1CC2(CCN(C(=O)[C@@H]3C[C@@H](F)CN3)CC2)C1` [Example 58], the pIC50 on Menin-MLL1 was 8.46; in the assay with HL-60 cells, less than 5.00; with MV-4-11 cells it was 7.57. Moreover, the inhibition at 10 µM with HL-60 cells is -4.5%.
For the compound `CCN(C(=O)c1cc(F)ccc1Oc1cncnc1N1CC2(CCN(C(=O)[C@H]3NCC[C@H]3C)CC2)C1)C(C)C` [Example 40], the pIC50 is 8.27 at Menin-MLL1 and 7.58 in the assay on MV-4-11 cells.
For `CCN(C(=O)c1cc(Cl)ccc1Oc1cncnc1N1CC2(CCN(C(=O)[C@@H]3C[C@@H](F)CN3)CC2)C1)C(C)C` [Example 19], in that order: 8.30 and 7.40.
As to `O=C([C@H]1NC[C@@H]2C[C@@H]21)N1CCC2(CC1)CN(c1ncnnc1Oc1ccc(F)cc1-c1cncnc1C1CC1)C2` [Example 80], the figures for the pIC50 at Menin-MLL1, in the assay on HL-60 cells and in the assay with MV-4-11 cells were 8.37, less than 5.00 and 7.41, respectively. In the assay on HL-60 cells, the inhibition at 10 µM is 0%.
In the case of `CCN(C(=O)c1cc(F)ccc1Oc1cncnc1N1CC2(CCN(C(=O)[C@@H]3C[C@@H]4C[C@@H]4N3)CC2)C1)C(C)C` [Example 30], the values for the pIC50 on Menin-MLL1 and in the assay with MV-4-11 cells were 8.33 and 7.47, respectively.
For `CCN(C(=O)c1cc(F)ccc1Oc1cncnc1N1CC2(CCN(C(=O)[C@@]3(C)CCCN3)CC2)C1)C(C)C` [Example 29], in that order: 8.15 and 6.57.
For `CCN(C(=O)c1cc(F)ccc1Oc1nncnc1N1CC2(CCN(C(=O)[C@@H]3NCC[C@H]3CF)CC2)C1)C(C)C` [Example 89], in that order: 7.62 and 6.00.
`CCN(C(=O)c1cc(F)ccc1Oc1cncnc1N1CC2(CCN(C(=O)[C@@H]3C[C@@H](C#N)CN3)CC2)C1)C(C)C` [Example 27, 2-((4-(7-((2S,4R)-4-cyanopyrrolidine-2-carbonyl)-2,7-diazaspiro[3.5]nonan-2-yl)pyrimidin-5-yl)oxy)-N-ethyl-5-fluoro-N-isopropylbenzamide]: the pIC50 at Menin-MLL1 was 7.74; in the assay on MV-4-11 cells, 6.38.
For `CC(C)N(C(=O)c1cc(F)ccc1Oc1nncnc1N1CC2(CCN(C(=O)[C@@H]3C[C@@H](C)CN3)CC2)C1)C(C)C` [Example 73], in that order: 8.39 and 7.66.
For `C[C@H]1COCCN1C(=O)c1cc(F)ccc1Oc1cncnc1N1CC2(CCN(C(=O)[C@@H]3C[C@@H](F)CN3)CC2)C1` [Example 53], in that order: 7.96 and 6.10.
Take `[2H]c1c(F)cc(C(=O)N(CC)C(C)C)c(Oc2cncnc2N2CC3(CCN(C(=O)[C@@H]4C[C@@H](F)CN4)CC3)C2)c1[2H]` [Example 31]: the values for the pIC50 at Menin-MLL1 and in the assay on MV-4-11 cells were 8.17 and 7.39, respectively.
